Assay results: patent US11028079B2 (ConverGene LLC, priority 2015, dated 2021)

Each molecule was assayed against T1, BRD4 bromodomains (Homo sapiens, UniProt O60885) (assay: BROMOscan bromodomain competition binding assay (DiscoveRx)). Conditions: Kd from 11 compound concentrations ranging from 0 to 10 μM, read-out: BROMOscan Relative Activity.
T1 construct: fused on or other part: T7 phage capsid protein (phage-display fusion; the phage DNA is read out by qPCR)
Procedure: Bromodomain assays were conducted to measure interactions between certain compounds and bromodomains.
The assays were conducted according to BROMOscan protocol from Discover Rx. Briefly, BRD4 bromodomains expressed as a fusion capsid protein of T7 phage were bound to acetylated peptide ligand on a solid phase and competition bindings were performed. T7 phage strains displaying bromodomains were grown in parallel in 24-well blocks in an E. coli host derived from the BL21 strain. E. coli were grown to log-phase and infected with T7 phage from a frozen stock (multiplicity of infection=0.4) and incubated with shaking at 32° C. until lysis (90-150 minutes). The lysates were centrifuged (5,000×g) and filtered (0.2 μm) to remove cell debris. […] The liganded beads were blocked with excess biotin and washed with blocking buffer (SeaBlock (Pierce), 1% BSA, 0.05% Tween 20, 1 mM DTT) to remove unbound ligand and to reduce non-specific phage binding. […] Test compounds were prepared as 1000× stocks in 100% DMSO and subsequently diluted 1:10 in monoethylene glycol (MEG) to create stocks at 100× the screening concentration (resulting stock solution is 10% DMSO/90% MEG). The compounds were then diluted directly into the assays such that the final concentration of DMSO and MEG were 0.1% and 0.9%, respectively. All reactions were performed in polystyrene 96-well plates in a final volume of 0.135 ml. […] The bromodomain concentration in the eluates was measured by qPCR. Data was collected at 11 compound concentrations ranging from 0 to 10 μM. Kd values were then derived from a standard dose-response curve generated with Hill equation (Hill Slope was set to ˜1) and a non-linear least square fit with the Levenberg-Marquardt algorithm. Response=Background+Signal−Background/1+(Kd Hill Slope/Dose Hill Slope)

SMILES	Kd [nM]
Cc1noc(C)c1-c1ccc2nc(N3CCC(CCN(C)C)CC3)nc(NCc3cccc(Cl)c3)c2c1 [Example 34, N-(3-chlorobenzyl)-2-(4-(2-(dimethylamino)ethyl)piperidin-1-yl)-6-(3,5-dimethylisoxazol-4-yl)quinazolin-4-amine]	< 500
Cc1noc(C)c1-c1ccc2nc(N3CCN(C(=O)c4cccnc4)CC3)nc(NCc3cccc(Cl)c3)c2c1 [Example 35, (4-(4-((3-chlorobenzyl)amino)-6-(3,5-dimethylisoxazol-4-yl)quinazolin-2-yl)piperazin-1-yl)(pyridin-3-yl)methanone]	< 500
Cc1noc(C)c1-c1ccc2nc(N3CCN(C(=O)CO)CC3)nc(NCc3cccc(Cl)c3)c2c1 [Example 36, 1-(4-(4-((3-chlorobenzyl)amino)-6-(3,5-dimethylisoxazol-4-yl)quinazolin-2-yl)piperazin-1-yl)-2-hydroxyethanone]	< 500
Cc1noc(C)c1-c1ccc2nc(N3CCN(C(=O)CN(C)C)CC3)nc(NCc3cccc(Cl)c3)c2c1 [Example 37, 1-(4-(4-((3-chlorobenzyl)amino)-6-(3,5-dimethylisoxazol-4-yl)quinazolin-2-yl)piperazin-1-yl)-2-(dimethylamino)ethanone]	< 500
Cc1noc(C)c1-c1ccc2c(NCc3cccc(Cl)c3)nc(Cl)nc2c1 [Example 38, 2-chloro-N-(3-chlorobenzyl)-7-(3,5-dimethylisoxazol-4-yl)quinazolin-4-amine]	500 to 5000
Cc1noc(C)c1-c1ccc2c(NCc3cccc(Cl)c3)nc(N3CCN(CCN(C)C)CC3)nc2c1 [Example 39, N-(3-chlorobenzyl)-2-(4-(2-(dimethylamino)ethyl)piperazin-1-yl)-7-(3,5-dimethylisoxazol-4-yl)quinazolin-4-amine]	500 to 5000
Cc1noc(C)c1-c1ccc2c(NCc3cccc(Cl)c3)nc(N3CCN(CCO)CC3)nc2c1 [Example 40, 2-(4-(4-((3-chlorobenzyl)amino)-7-(3,5-dimethylisoxazol-4-yl)quinazolin-2-yl)piperazin-1-yl)ethanol]	500 to 5000
Cc1noc(C)c1-c1ccc2nc(N3CCC(CN(C)C)CC3)nc(NCc3cccc(Cl)c3)c2c1 [Example 41, N-(3-chlorobenzyl)-2-(4-((dimethylamino)methyl)piperidin-1-yl)-6-(3,5-dimethylisoxazol-4-yl)quinazolin-4-amine]	< 500
Cc1noc(C)c1-c1ccc2nc(-n3cc(CCO)cn3)nc(NCc3cccc(Cl)c3)c2c1 [Example 42, 2-(1-(4-((3-chlorobenzyl)amino)-6-(3,5-dimethylisoxazol-4-yl)quinazolin-2-yl)-1H-pyrazol-4-yl)ethanol]	< 500
Cc1noc(C)c1-c1ccc2cc(N3CCN(CCN(C)C)CC3)nc(NCc3cccc(Cl)c3)c2c1 [Example 43, N-(3-chlorobenzyl)-3-(4-(2-(dimethylamino)ethyl)piperazin-1-yl)-7-(3,5-dimethylisoxazol-4-yl)isoquinolin-1-amine]	500 to 5000
Cc1noc(C)c1-c1ccc2cc(N3CCN(CCO)CC3)nc(NCc3cccc(Cl)c3)c2c1 [Example 44, 2-(4-(1-((3-chlorobenzyl)amino)-7-(3,5-dimethylisoxazol-4-yl)isoquinolin-3-yl)piperazin-1-yl)ethanol]	500 to 5000
Cc1noc(C)c1-c1ccc2nc(N3CCN(CC(C)O)CC3)nc(NCc3cccc(Cl)c3)c2c1 (stereo not drawn) [Example 45, 1-(4-(4-((3-chlorobenzyl)amino)-6-(3,5-dimethylisoxazol-4-yl)quinazolin-2-yl)piperazin-1-yl)propan-2-ol]	< 500
Cc1noc(C)c1-c1ccc2nc(N3CCN(C[C@@H](C)O)CC3)nc(NCc3cccc(Cl)c3)c2c1 [Example 46, (R)-1-(4-(4-((3-chlorobenzyl)amino)-6-(3,5-dimethylisoxazol-4-yl)quinazolin-2-yl)piperazin-1-yl)propan-2-ol]	< 500
Cc1noc(C)c1-c1ccc2nc(N3CCN(C[C@H](C)O)CC3)nc(NCc3cccc(Cl)c3)c2c1 [Example 47, (S)-1-(4-(4-((3-chlorobenzyl)amino)-6-(3,5-dimethylisoxazol-4-yl)quinazolin-2-yl)piperazin-1-yl)propan-2-ol]	< 500
Cc1noc(C)c1-c1ccc2nc(-c3cnn(CCO)c3)nc(NCc3cccc(Cl)c3)c2c1 [Example 48, 2-(4-(4-((3-chlorobenzyl)amino)-6-(3,5-dimethylisoxazol-4-yl)quinazolin-2-yl)-1H-pyrazol-1-yl)ethanol]	< 500
Cc1noc(C)c1-c1ccc2nc(-c3cnn(C)c3)nc(NCc3cccc(Cl)c3)c2c1 [Example 49, N-(3-chlorobenzyl)-6-(3,5-dimethylisoxazol-4-yl)-2-(1-methyl-1H-pyrazol-4-yl)quinazolin-4-amine]	< 500
Cc1noc(C)c1-c1ccc2nc(-c3cnn(CC(N)=O)c3)nc(NCc3cccc(Cl)c3)c2c1 [Example 50, 2-(4-(4-((3-chlorobenzyl)amino)-6-(3,5-dimethylisoxazol-4-yl)quinazolin-2-yl)-1H-pyrazol-1-yl)acetamide]	< 500
Cc1noc(C)c1-c1ccc2c(NCc3cccc(Cl)c3)nc(-c3cnn(CC(N)=O)c3)nc2c1 [Example 51, 2-(4-(4-((3-chlorobenzyl)amino)-7-(3,5-dimethylisoxazol-4-yl)quinazolin-2-yl)-1H-pyrazol-1-yl)acetamide]	500 to 5000
Cc1noc(C)c1-c1ccc2nc(N3CCN(CC(=O)N(C)C)CC3)nc(NCc3cccc(Cl)c3)c2c1 [Example 52, 2-(4-(4-((3-chlorobenzyl)amino)-6-(3,5-dimethylisoxazol-4-yl)quinazolin-2-yl)piperazin-1-yl)-N,N-dimethylacetamide]	< 500
CNC(=O)CN1CCN(c2nc(NCc3cccc(Cl)c3)c3cc(-c4c(C)noc4C)ccc3n2)CC1 [Example 53, 2-(4-(4-((3-chlorobenzyl)amino)-6-(3,5-dimethylisoxazol-4-yl)quinazolin-2-yl)piperazin-1-yl)-N-methylacetamide]	< 500
Cc1noc(C)c1-c1ccc2nc(N3CCN(CC(N)=O)CC3)nc(NCc3cccc(Cl)c3)c2c1 [Example 54, 2-(4-(4-((3-chlorobenzyl)amino)-6-(3,5-dimethylisoxazol-4-yl)quinazolin-2-yl)piperazin-1-yl)acetamide]	< 500
Cc1noc(C)c1-c1ccc2nc(N3CCN(C(=O)CN)CC3)nc(NCc3cccc(Cl)c3)c2c1 [Example 55, 2-amino-1-(4-(4-((3-chlorobenzyl)amino)-6-(3,5-dimethylisoxazol-4-yl)quinazolin-2-yl)piperazin-1-yl)ethanone]	< 500
Cc1noc(C)c1-c1ccc2nc(-c3cnn(CC(C)(C)O)c3)nc(NCc3cccc(Cl)c3)c2c1 [Example 56, 1-(4-(4-((3-chlorobenzyl)amino)-6-(3,5-dimethylisoxazol-4-yl)quinazolin-2-yl)-1H-pyrazol-1-yl)-2-methylpropan-2-ol]	< 500
Cc1noc(C)c1-c1ccc2nc(-c3cnn(CCC#N)c3)nc(NCc3cccc(Cl)c3)c2c1 [Example 57, 3-(4-(4-((3-chlorobenzyl)amino)-6-(3,5-dimethylisoxazol-4-yl)quinazolin-2-yl)-1H-pyrazol-1-yl)propanenitrile]	< 500
COCCn1cc(-c2nc(NCc3cccc(Cl)c3)c3cc(-c4c(C)noc4C)ccc3n2)cn1 [Example 58, N-(3-chlorobenzyl)-6-(3,5-dimethylisoxazol-4-yl)-2-(1-(2-methoxyethyl)-1H-pyrazol-4-yl)quinazolin-4-amine]	< 500
Cc1noc(C)c1-c1ccc2nc(-c3cnn(CC#N)c3)nc(NCc3cccc(Cl)c3)c2c1 [Example 59, 2-(4-(4-((3-chlorobenzyl)amino)-6-(3,5-dimethylisoxazol-4-yl)quinazolin-2-yl)-1H-pyrazol-1-yl)acetonitrile]	< 500
Cc1noc(C)c1-c1ccc2nc(-c3cnn(CCN(C)C)c3)nc(NCc3cccc(Cl)c3)c2c1 [Example 60, N-(3-chlorobenzyl)-2-(1-(2-(dimethylamino)ethyl)-1H-pyrazol-4-yl)-6-(3,5-dimethylisoxazol-4-yl)quinazolin-4-amine]	< 500
Cc1noc(C)c1-c1ccc2nc(-c3cnn(C4COC4)c3)nc(NCc3cccc(Cl)c3)c2c1 [Example 61, N-(3-chlorobenzyl)-6-(3,5-dimethylisoxazol-4-yl)-2-(1-(oxetan-3-yl)-1H-pyrazol-4-yl)quinazolin-4-amine]	< 500
Cc1noc(C)c1-c1ccc2nc(-c3cnn(C(C)(C)CO)c3)nc(NCc3cccc(Cl)c3)c2c1 [Example 62, 2-(4-(4-((3-chlorobenzyl)amino)-6-(3,5-dimethylisoxazol-4-yl)quinazolin-2-yl)-1H-pyrazol-1-yl)-2-methylpropan-1-ol]	< 500
Cc1noc(C)c1-c1ccc2nc(-c3ccc(CO)nc3)nc(NCc3cccc(Cl)c3)c2c1 [Example 63, (5-(4-((3-chlorobenzyl)amino)-6-(3,5-dimethylisoxazol-4-yl)quinazolin-2-yl)pyridin-2-yl)methanol]	< 500
